Measurements taken from patent US9539282B2, “Therapeutic use of hydrogen molecules” (MAX-PLANCK-GESELLSCHAFT ZUR FORDERUNG DER WISSENSCHAFTEN …, priority 2012, dated 2017).

Experiments:
[1] = standard conditions, worked out from 0.8 mmol and 2 g per mole
[2] = standard conditions (room temperature, standard air pressure); cited from earlier work

[HH] [hydrogen]
hydrogen per liter of water at maximum dissolution [1]: about 1.6 mg per liter
maximum concentration at which hydrogen dissolves in water [2]: about 0.8 mmol
